The values below come from paper PMC10982501, “Synthesis and biological evaluation of novel benzothiazole derivatives as potential anticancer and antiinflammatory agents” (Frontiers in Chemistry, 2024).

One data set has as its system A431 cells. Briefly: MTT cell proliferation assay, A431. It counts as cell-based, human. As to conditions: for A431 cells inhibition rate / inhibition at 10 µM: 10 μM; for A431 cells inhibition rate: 48 h; for inhibition at 10 µM / IC50: Homo sapiens, A-431, 48 h; for inhibition at 10 µM: read-out: A431 cells inhibition rate; for IC50: read-out: IC50 (mean ± SD) A431. As to the method:
(§1) Beas-2b, A431, A549 and H1299 cells were cultured in 96-well plates (5 × 10^3 cells/well) for 16 h, respectively. Subsequently, positive compound 4i and 25 newly synthesized compounds were added at a final concentration of 10 μM or gradient concentrations (0.01, 0.1, 0.5, 1, 5 and 10 μM), co-incubated with the cells for 48 h. MTT (M8180, Solarbio) solutions (5 mg/mL) were then added and incubated for 4 h in the dark. Then, formazan crystals were dissolved with DMSO (D8371, Solarbio), followed by shaking on a shaker (DRAGONLAB, China) for 10 min. Finally, absorbance at 490 nm wavelength for each well was measured with Microplate reader (Molecular Devices, United States) ([Tang et al., 2020]; [Lee et al., 2021]). The results are expressed as mean ± SD from three independent experiments. Cells inhibition rates or IC50 values were calculated using GraphPad Prism 9.5.0.
For orientation: Tetrazolium assays rely on reduction of a dye to a coloured formazan, in cell work by metabolically active cells.

A further data set deals with A549 cells. Briefly: MTT cell proliferation assay, A549. The data set is classed as cell-based, human. The conditions noted are these: for A549 cells inhibition rate / inhibition at 10 µM: 10 μM; for A549 cells inhibition rate: 48 h; for inhibition at 10 µM / IC50: Homo sapiens, A549, 48 h; for inhibition at 10 µM: read-out: A549 cells inhibition rate; for IC50: read-out: IC50 (mean ± SD) A549. As for the experimental part: as §1

A further data set concerns Beas-2b cells. In words: MTT cell proliferation and toxicity assay, Beas-2b. The data set is classed as cell-based, human. The conditions noted are these: 48 h; for inhibition at 10 µM: Homo sapiens, BEAS-2B, read-out: Beas-2b cells inhibition rate. As to the method: as §1
Data set [1] in a line: Oil-water partition coefficient (log P) measurement. The data set is classed as physicochemical. As to conditions: n-octanol/water, room temperature. As for the experimental part: The partition coefficient between n-octanol and water (log Po/w) is the classical descriptor for Lipophilicity ([Daina et al., 2017]). The test methodology followed previously published protocols ([Wang et al., 2021]). At room temperature, two large Erlenmeyer flasks were taken and filled with n-octanol and water, respectively. The flasks were placed in a constant temperature shaker at 150 rpm for 24 h to saturate the solvents. The mixtures were then transferred to separating funnels under normal pressure to obtain water-saturated n-octanol and n-octanol-saturated water for subsequent use. The target compound (2 mg) was accurately weighed and placed in a 2 mL brown volumetric flask. Anhydrous methanol was added to ultrasonically dissolve the compound, and the mixture was diluted to volume and thoroughly shaken to prepare a 1 mg/mL stock solution. The stock solution was further diluted to obtain 1, 1.5, 2, 2.5, 5 and 10 μg/mL reference solutions for construction of a standard curve using a UV-visible spectrophotometer. An excess amount of the analyte was dissolved in water-saturated n-octanol, and the mixture was shaken at 150 rpm for 24 h at constant temperature to obtain a saturated solution. The saturated solution was allowed to stand, centrifuged, and 1 mL of the supernatant was transferred to a 4 mL centrifuge tube. N-octanol saturated water (1 mL) was added, and the mixture was shaken at 150 rpm for 24 h at constant temperature. After standing for 8 h, the mixture was centrifuged. Appropriate amounts of the n-octanol phase before and after equilibration were diluted with methanol, and concentrations were determined from the standard curve to obtain C0 and C1. The concentration in the n-octanol saturated aqueous phase, Cw, was calculated as Cw = C0 - C1. Thus, log Po/w = […].

A further data set relates to H1299 cells. In words: MTT cell proliferation assay, H1299. It counts as cell-based, human. The conditions noted are these: for H1299 cells inhibition rate / inhibition at 10 µM: 10 μM; for H1299 cells inhibition rate: 48 h; for inhibition at 10 µM / IC50: Homo sapiens, NCI-H1299, 48 h; for inhibition at 10 µM: read-out: H1299 cells inhibition rate; for IC50: read-out: IC50 (mean ± SD) H1299. As to the method: as §1

By inhibition is commonly meant the share of the control response that was lost under treatment. Broadly, the IC50 is the concentration needed to halve the response being measured. For orientation: logP means a log measure of how a compound divides between an organic and an aqueous phase. Regarding `Clc1ccc2nc(NCc3ccccc3)sc2c1` [B8, N-benzyl-6-chlorobenzo[d]thiazol-2-amine], in the data set with A431 cells, the “A431 cells inhibition rate” value is 57.43 ± 3.64%, the inhibition at 10 µM was over 50% and the half-inhibitory concentration (IC50) turned out to be 5.36 ± 1 µM. In addition, in the data set on A549 cells, the “A549 cells inhibition rate” value is 65.75 ± 0.96%, the inhibition at 10 µM is over 50% and the 50% inhibitory concentration (IC50) came out at 6.25 ± 0.99 µM. Moreover, the inhibition at 10 µM in the data set on Beas-2b cells is 18.1 ± 3.22%. In data set [1], this compound yielded a logP of 3.56 ± 0.16. In the data set with H1299 cells, the “H1299 cells inhibition rate” value came out at 55.22 ± 2.49%, the inhibition at 10 µM was over 50% and the IC50 turned out to be 6.69 ± 0.54 µM.
Turning to `O=[N+]([O-])c1ccccc1COc1ccccc1-c1nc2ccccc2s1` [A2, 2-(2-((2-nitrobenzyl)oxy)phenyl)benzo[d]thiazole], the inhibition at 10 µM in the data set on A431 cells was found to be 35.8 ± 2.03%; with A549 cells, 33.1 ± 2.34%; in the data set with Beas-2b cells, 17.3 ± 3.26%; with H1299 cells, 42.4 ± 1.26%. Moreover, the lipophilicity (logP) in data set [1] was 3.51 ± 0.19.
Regarding `COc1ccc(CNc2nc3ccc(F)cc3s2)cc1OC` [B3, N-(3,4-dimethoxybenzyl)-6-fluorobenzo[d]thiazol-2-amine], the inhibition at 10 µM with A431 cells is 32.4 ± 2.92%; in the data set on A549 cells it was 22.4 ± 1.34%; in the data set with Beas-2b cells, 25.4 ± 2.01%; in the data set on H1299 cells it was 44.6 ± 1.75%. Further, the logP in data set [1] is 2.56 ± 0.12.
As for `COc1cc(CNc2nc3ccc(Cl)cc3s2)cc(OC)c1` [B6, 6-chloro-N-(3,5-dimethoxybenzyl)benzo[d]thiazol-2-amine], the inhibition at 10 µM with A431 cells worked out at 43.4 ± 1.61%; with A549 cells, 35.2 ± 2.86%; with Beas-2b cells, 20.6 ± 1.32%; in the data set on H1299 cells, 32.8 ± 0.74%. Moreover, the log partition coefficient (logP) in data set [1] was 3.36 ± 0.18.
As for `COc1ccc(C(=O)Nc2nc3ccc(Cl)cc3s2)cc1` [C5, N-(6-chlorobenzo[d]thiazol-2-yl)-4-methoxybenzamide], in the data set on A431 cells, the “A431 cells inhibition rate” value turned out to be 55.67 ± 2.34%, the inhibition at 10 µM is over 50% and the IC50 worked out at 4.35 ± 0.9 µM. Moreover, in the data set on A549 cells, the “A549 cells inhibition rate” value is 56.33 ± 2.96%, the inhibition at 10 µM is over 50% and the half-inhibitory concentration (IC50) worked out at 9.82 ± 0.98 µM. In the data set on Beas-2b cells, the inhibition at 10 µM amounted to 17.2 ± 1.24%. This compound had a logP in data set [1] of 2.87 ± 0.15. Besides, in the data set with H1299 cells, the “H1299 cells inhibition rate” value was 51.98 ± 0.24%, the inhibition at 10 µM is over 50% and the half-inhibitory concentration (IC50) worked out at 8.94 ± 1.21 µM.
With `O=[N+]([O-])c1ccc(COc2ccccc2-c2nc3ccccc3s2)cc1` [A4, 2-(2-((4-nitrobenzyl)oxy)phenyl)benzo[d]thiazole], the inhibition at 10 µM was 35.8 ± 1.02% in the data set on A431 cells, 33.3 ± 1.36% in the data set on A549 cells, 10.3 ± 0.64% in the data set on Beas-2b cells and 39.4 ± 1.2% in the data set on H1299 cells. In data set [1], this compound registered a logP of 3.74 ± 0.35.
The matching figures for `Cc1ccc(COc2ccccc2-c2nc3ccccc3s2)cc1` [A6, 2-(2-((4-methylbenzyl)oxy)phenyl)benzo[d]thiazole]: 27.7 ± 1.62%, 20.7 ± 2.31%, 15.1 ± 3.28%, 33.9 ± 0.68% and 4.72 ± 0.28.
On the same counts, the results for `O=C(Nc1nc2ccc(F)cc2s1)c1ccc([N+](=O)[O-])cc1` [C4, N-(6-fluorobenzo[d]thiazol-2-yl)-4-nitrobenzamide] are 43.1 ± 1.45%, 35.3 ± 1.82%, 13.4 ± 1.65%, 45.2 ± 0.55% and 3.06 ± 0.23.
The matching figures for `O=[N+]([O-])c1ccc(CNc2nc3ccc(F)cc3s2)cc1` [B4, 6-fluoro-N-(4-nitrobenzyl)benzo[d]thiazol-2-amine]: 24.3 ± 1.87%, 19.6 ± 1.32%, 21.4 ± 2.21%, 25 ± 1.62% and 2.67 ± 0.25.
As to `COc1ccc(C(=O)Nc2nc3ccc(F)cc3s2)cc1OC` [C3, N-(6-fluorobenzo[d]thiazol-2-yl)-3,4-dimethoxybenzamide], the inhibition at 10 µM was 12.3 ± 1.51% in the data set on A431 cells, 4.38 ± 0.35% in the data set on A549 cells, 21.3 ± 1.62% in the data set on Beas-2b cells and 18 ± 2.52% in the data set with H1299 cells. Further, the lipophilicity (logP) in data set [1] was 2.49 ± 0.39.
For `O=C(Nc1nc2ccc(F)cc2s1)c1ccccc1` [C1, N-(6-fluorobenzo[d]thiazol-2-yl)benzamide], the inhibition at 10 µM in the data set with A431 cells turned out to be 17.5 ± 1.35%; in the data set on A549 cells it was 19.3 ± 1.07%; in the data set on Beas-2b cells, 16.3 ± 1.82%; in the data set on H1299 cells it was 28.3 ± 1.25%. The logP in data set [1] worked out at 2.56 ± 0.14.
As for `Fc1ccc2nc(NCCc3ccccc3)sc2c1` [B1, 6-fluoro-N-phenethylbenzo[d]thiazol-2-amine], the inhibition at 10 µM was 21.1 ± 2.03% with A431 cells, 18.3 ± 0.93% in the data set on A549 cells, 23.1 ± 1.52% in the data set with Beas-2b cells and 26.3 ± 0.91% in the data set on H1299 cells. Further, in data set [1], the logP amounted to 3.47 ± 0.27.
On the same counts, the results for `Clc1cccc(COc2ccccc2-c2nc3ccccc3s2)c1` [A5, 2-(2-((3-chlorobenzyl)oxy)phenyl)benzo[d]thiazol] are 45.7 ± 0.87%, 47.6 ± 1.24%, 18.2 ± 2.23%, 35.3 ± 2.24% and 4.51 ± 0.24.
On the same counts, the results for `O=C(Nc1nc2ccc(Cl)cc2s1)c1ccccc1F` [C7, N-(6-chlorobenzo[d]thiazol-2-yl)-2-fluorobenzamide] are 40.4 ± 1.33%, 44.6 ± 0.94%, 21.4 ± 2.25%, 48.28 ± 0.37% and 2.9 ± 0.32.
A word on the log P: it is the decadic logarithm of the partition coefficient of the neutral form, usually between octanol and water. Read a high log P as higher lipophilicity. `O=C(Nc1nc2ccc(F)cc2s1)c1c(Cl)cccc1Cl` [C2, 2,6-dichloro-N-(6-fluorobenzo[d]thiazol-2-yl) benzamide]: in the data set with A431 cells, the “A431 cells inhibition rate” value amounted to 5.61 ± 0.26%. Also, the “A549 cells inhibition rate” value in the data set on A549 cells was found to be 0.27 ± 0.12%. Besides, in the data set with Beas-2b cells (10 μM), the “Beas-2b cells inhibition rate” value was found to be 12.82 ± 1.76%. Moreover, the “log P” value in data set [1] was 2.93 ± 0.11. Further, the “H1299 cells inhibition rate” value with H1299 cells was 6.80 ± 0.22%.
Regarding `N#Cc1ccc(COc2ccccc2-c2nc3ccccc3s2)cc1` [A8, 4-((2-(benzo[d]thiazol-2-yl)phenoxy)methyl)benzonitrile], the inhibition at 10 µM was 28.6 ± 1.24% in the data set with A431 cells, 24.4 ± 1.22% in the data set on A549 cells, 14.2 ± 3.65% with Beas-2b cells and 37.3 ± 2.3% in the data set with H1299 cells. Further, the lipophilicity (logP) in data set [1] turned out to be 3.44 ± 0.22.
As for `O=C(Nc1nc2ccc(Cl)cc2s1)c1ccccc1` [C6, N-(6-chlorobenzo[d]thiazol-2-yl)benzamide], in the data set with A431 cells, the “A431 cells inhibition rate” value came to 57.73 ± 2.12%, the inhibition at 10 µM was over 50% and the concentration for half-maximal inhibition (IC50) was found to be 8.4 ± 1.06 µM. Also, in the data set with A549 cells, the “A549 cells inhibition rate” value was 55.56 ± 2.78%, the inhibition at 10 µM is over 50% and the IC50 turned out to be 8.17 ± 0.4 µM. Moreover, the inhibition at 10 µM with Beas-2b cells was found to be 20.6 ± 0.52%. The logP in data set [1] came to 3.05 ± 0.17. In the data set on H1299 cells, the “H1299 cells inhibition rate” value is 59.72 ± 1.84%, the inhibition at 10 µM is over 50% and the IC50 was 9.02 ± 0.37 µM.
Consider `Fc1cccc(CNc2nc3ccc(Cl)cc3s2)c1` [B5, 6-chloro-N-(3-fluorobenzyl)benzo[d]thiazol-2-amine], for which, in the data set on A431 cells, the “A431 cells inhibition rate” value is on record as 59.69 ± 3.62%, the inhibition at 10 µM is over 50% and the 50% inhibitory concentration (IC50) turned out to be 10.8 ± 0.56 µM. For the same compound, in the data set on A549 cells, the “A549 cells inhibition rate” value is 58.64 ± 1.01%, the inhibition at 10 µM was over 50% and the IC50 came out at 5.44 ± 1 µM. In the data set on Beas-2b cells, the inhibition at 10 µM is 20.6 ± 1.85%. In addition, the lipophilicity (logP) in data set [1] worked out at 3.58 ± 0.11. Moreover, in the data set with H1299 cells, the “H1299 cells inhibition rate” value came to 51.34 ± 3.03%, the inhibition at 10 µM is over 50% and the IC50 worked out at 9.26 ± 1.34 µM.
